# Test results from publication doi:10.1101/2022.11.14.516475v2 (biorxiv, 2022).
# What was measured:
# [1] = target: T1, 5-HT2A serotonin receptor (Homo sapiens, UniProt P28223); experiment: DiscoverX gpcrMAX beta-arrestin recruitment, antagonist mode; type: cell-based; settings: read-out: % inhibition at 10 μM
# T1 construct: gene HTR2A; DiscoverX gpcrMAX PathHunter beta-arrestin cell line, enzyme-fragment tagged receptor
# hERG K+ channel = target: T2, hERG K+ channel (Homo sapiens, UniProt Q12809); experiment: automated whole-cell patch clamp, HEK293, tail current; type: cell-based; settings: hek293 cells
# T2 construct: gene KCNH2; expressed in HEK293 cells (Cyprotex), automated patch clamp
# T2 sequence (Q12809 whole entry): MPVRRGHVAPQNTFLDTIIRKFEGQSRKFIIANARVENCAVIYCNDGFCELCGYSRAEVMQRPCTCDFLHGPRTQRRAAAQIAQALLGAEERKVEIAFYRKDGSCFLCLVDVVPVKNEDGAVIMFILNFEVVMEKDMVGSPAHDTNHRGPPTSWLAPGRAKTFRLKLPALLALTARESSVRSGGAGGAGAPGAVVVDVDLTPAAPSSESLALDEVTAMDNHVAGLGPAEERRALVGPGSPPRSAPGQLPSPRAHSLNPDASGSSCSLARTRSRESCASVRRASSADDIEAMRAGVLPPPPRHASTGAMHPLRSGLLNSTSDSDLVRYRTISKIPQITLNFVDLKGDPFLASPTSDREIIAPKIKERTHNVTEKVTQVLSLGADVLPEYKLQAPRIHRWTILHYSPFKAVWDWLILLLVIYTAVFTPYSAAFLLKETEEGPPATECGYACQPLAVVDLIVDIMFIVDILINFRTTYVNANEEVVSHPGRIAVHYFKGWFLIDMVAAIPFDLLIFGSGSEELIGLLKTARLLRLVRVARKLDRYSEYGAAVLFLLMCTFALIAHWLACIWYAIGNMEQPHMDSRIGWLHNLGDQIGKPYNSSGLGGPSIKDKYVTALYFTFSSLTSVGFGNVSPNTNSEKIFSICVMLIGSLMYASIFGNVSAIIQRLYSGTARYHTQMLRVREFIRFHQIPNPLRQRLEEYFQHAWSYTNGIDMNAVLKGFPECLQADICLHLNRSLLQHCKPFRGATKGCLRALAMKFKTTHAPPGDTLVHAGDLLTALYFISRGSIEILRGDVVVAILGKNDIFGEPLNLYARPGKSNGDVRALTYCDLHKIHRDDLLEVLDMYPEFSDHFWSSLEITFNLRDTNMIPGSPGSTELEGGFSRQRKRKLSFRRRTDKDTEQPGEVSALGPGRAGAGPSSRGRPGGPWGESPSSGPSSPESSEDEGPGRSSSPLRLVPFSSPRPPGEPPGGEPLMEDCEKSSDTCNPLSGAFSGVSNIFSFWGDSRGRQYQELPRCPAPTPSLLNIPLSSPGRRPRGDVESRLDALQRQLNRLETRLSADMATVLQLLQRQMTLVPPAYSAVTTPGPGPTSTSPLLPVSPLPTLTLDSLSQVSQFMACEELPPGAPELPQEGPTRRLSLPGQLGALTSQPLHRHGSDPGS
# 5-HT7 serotonin receptor = target: T3, 5-HT7 serotonin receptor (Homo sapiens, UniProt P34969); experiment: PDSP radioligand binding competition; settings: read-out: % inhibition at 10 μM
# T3 construct: gene HTR7
# T3 sequence (P34969 whole entry): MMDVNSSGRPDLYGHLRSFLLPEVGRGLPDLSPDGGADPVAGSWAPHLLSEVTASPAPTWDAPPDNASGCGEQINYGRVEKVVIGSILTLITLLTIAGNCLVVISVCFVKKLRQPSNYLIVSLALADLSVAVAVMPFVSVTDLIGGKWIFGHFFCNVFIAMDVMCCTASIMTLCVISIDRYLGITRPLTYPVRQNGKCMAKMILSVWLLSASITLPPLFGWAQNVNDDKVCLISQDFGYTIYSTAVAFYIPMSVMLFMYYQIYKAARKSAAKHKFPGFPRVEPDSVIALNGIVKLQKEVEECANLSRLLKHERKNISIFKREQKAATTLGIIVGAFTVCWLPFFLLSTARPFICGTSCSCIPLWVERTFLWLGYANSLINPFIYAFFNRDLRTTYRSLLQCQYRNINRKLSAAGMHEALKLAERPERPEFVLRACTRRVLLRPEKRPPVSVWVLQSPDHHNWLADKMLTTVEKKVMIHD
# [2] = target: T4, SNAP-tagged human D2SR (SNAP-D2RS) (Homo sapiens, UniProt P14416); experiment: biochemical; type: CHO cell membranes; design: TR-FRET competition kinetic binding with PPHT-red, Motulsky-Mahan fit; settings: read-out: koff (min^-1)
# T4 construct: gene DRD2
# T4 sequence (P14416 1-414 isoform P14416-2): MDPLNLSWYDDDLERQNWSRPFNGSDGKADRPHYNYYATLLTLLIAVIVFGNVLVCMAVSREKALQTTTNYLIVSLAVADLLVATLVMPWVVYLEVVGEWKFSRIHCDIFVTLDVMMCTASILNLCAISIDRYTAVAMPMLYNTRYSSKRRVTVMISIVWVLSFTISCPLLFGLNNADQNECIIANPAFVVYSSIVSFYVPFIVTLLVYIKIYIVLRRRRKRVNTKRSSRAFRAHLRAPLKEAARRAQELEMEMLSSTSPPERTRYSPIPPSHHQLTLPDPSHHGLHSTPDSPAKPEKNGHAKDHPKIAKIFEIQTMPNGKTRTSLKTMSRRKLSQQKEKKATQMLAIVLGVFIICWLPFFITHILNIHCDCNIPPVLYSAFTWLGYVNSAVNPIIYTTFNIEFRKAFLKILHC
# [3] = target: T5, 5-HT2C serotonin receptor (Homo sapiens, UniProt P28335); experiment: PDSP radioligand binding competition; settings: read-out: % inhibition at 10 μM
# T5 construct: gene HTR2C
# T5 sequence (P28335 33-458): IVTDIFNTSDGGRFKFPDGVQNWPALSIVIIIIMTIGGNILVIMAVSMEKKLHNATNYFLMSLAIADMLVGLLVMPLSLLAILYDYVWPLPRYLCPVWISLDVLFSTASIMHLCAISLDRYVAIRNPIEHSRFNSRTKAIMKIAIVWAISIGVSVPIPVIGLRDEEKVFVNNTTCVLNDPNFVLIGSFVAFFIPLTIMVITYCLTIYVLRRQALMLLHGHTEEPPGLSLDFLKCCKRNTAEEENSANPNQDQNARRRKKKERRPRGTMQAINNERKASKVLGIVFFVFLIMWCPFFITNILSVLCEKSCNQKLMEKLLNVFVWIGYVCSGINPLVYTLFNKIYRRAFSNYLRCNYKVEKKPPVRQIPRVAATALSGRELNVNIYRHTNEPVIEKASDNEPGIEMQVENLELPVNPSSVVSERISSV
# D3 = target: T6, D3 (Homo sapiens, UniProt P35462); experiment: biochemical; design: PDSP radioligand binding competition, single concentration, % inhibition of specific binding; settings: read-out: ML321 (10 µM) % Inhibition
# T6 construct: gene DRD3
# T6 sequence (P35462 whole entry): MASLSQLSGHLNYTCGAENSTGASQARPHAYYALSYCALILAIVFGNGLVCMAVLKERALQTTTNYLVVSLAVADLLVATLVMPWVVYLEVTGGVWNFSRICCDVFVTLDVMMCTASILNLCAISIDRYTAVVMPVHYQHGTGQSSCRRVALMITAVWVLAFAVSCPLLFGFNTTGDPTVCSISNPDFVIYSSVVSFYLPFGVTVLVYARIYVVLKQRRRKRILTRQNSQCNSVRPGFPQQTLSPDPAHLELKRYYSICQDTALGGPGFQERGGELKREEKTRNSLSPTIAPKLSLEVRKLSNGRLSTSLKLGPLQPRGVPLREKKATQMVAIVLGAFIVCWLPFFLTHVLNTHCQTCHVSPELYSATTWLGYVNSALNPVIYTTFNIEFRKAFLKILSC
# Protocol: ML321 was screened using the National Institute of Mental Health Psychoactive Drug Screening Program (PDSP) directed by Dr. Bryan L. Roth (University of North Carolina, Chapel Hill, NC). For experimental details including radioligands used and associated Kd values for each individual target, please refer to the PDSP website http://pdsp.med.unc.edu/. […] Assays were performed in triplicate. To further assess ML321 selectivity amongst a larger group of drug targets, we used the NIMH Psychoactive Drug Screening Program (PDSP), which utilizes radioligand binding competition assays for 46 unique GPCRs, transporters and ion channels. For screening, a single high concentration (10 µM) of ML321 was used to compete for radioligand binding to the PDSP targets (Figure 1C).
# D2 [4] = target: T7, D2 (Homo sapiens, UniProt P14416); experiment: biochemical; design: gene DRD2; PDSP radioligand binding competition, single concentration, % inhibition of specific binding; settings: read-out: ML321 (10 µM) % Inhibition
# T7 sequence (P14416 whole entry, the tested form may be a part): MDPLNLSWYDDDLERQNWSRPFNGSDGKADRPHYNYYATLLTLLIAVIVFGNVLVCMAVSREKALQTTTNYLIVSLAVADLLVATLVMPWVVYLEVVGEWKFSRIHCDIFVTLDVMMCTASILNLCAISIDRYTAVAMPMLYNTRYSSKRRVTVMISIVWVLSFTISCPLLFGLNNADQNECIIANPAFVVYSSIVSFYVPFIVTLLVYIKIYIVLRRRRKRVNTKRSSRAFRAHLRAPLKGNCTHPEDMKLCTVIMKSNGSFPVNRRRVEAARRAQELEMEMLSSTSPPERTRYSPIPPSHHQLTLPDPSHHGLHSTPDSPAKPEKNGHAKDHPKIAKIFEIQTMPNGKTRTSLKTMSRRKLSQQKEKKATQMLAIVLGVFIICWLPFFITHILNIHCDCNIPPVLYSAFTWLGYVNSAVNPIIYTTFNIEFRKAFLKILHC
# D2 [5] = target: T7, D2; type: cell-based; design: gene DRD2; full length; pcDNA3.1 mutants); DiscoverX beta-galactosidase fragment fusion for beta-arrestin assay; settings: agonist
# D2 [6] = target: T7, D2; type: binding; design: gene DRD2; full length; pcDNA3.1 mutants); DiscoverX beta-galactosidase fragment fusion for beta-arrestin assay; settings: wild-type control
# [7] = target: T4, SNAP-tagged human D2SR (SNAP-D2RS); experiment: TR-FRET association kinetics; type: binding; settings: labelled compound; read-out: Kd (koff / kon)
# T1 sequence (P28223 whole entry, the tested form may be a part): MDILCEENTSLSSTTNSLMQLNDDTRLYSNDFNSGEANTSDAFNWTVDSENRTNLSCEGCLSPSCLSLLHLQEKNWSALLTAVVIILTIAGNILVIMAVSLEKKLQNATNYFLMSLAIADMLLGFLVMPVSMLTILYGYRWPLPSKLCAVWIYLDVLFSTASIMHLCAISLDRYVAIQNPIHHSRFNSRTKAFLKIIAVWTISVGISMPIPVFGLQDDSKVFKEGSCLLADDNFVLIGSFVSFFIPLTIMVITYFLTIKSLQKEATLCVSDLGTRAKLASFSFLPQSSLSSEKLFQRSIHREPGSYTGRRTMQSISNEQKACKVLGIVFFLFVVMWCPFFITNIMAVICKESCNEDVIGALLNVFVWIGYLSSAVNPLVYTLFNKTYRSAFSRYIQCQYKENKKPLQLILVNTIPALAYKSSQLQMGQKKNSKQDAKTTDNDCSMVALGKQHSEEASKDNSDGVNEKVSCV
molecule,measurement,setting,value
CN1C(=O)c2ccccc2[S@+]([O-])c2ccc(C(=O)NCCc3cccs3)cc21 [ML321],inhibition at 10 µM,[1],48%
same,IC50,hERG K+ channel,> 25000 nM
same,inhibition at 10 µM,5-HT7 serotonin receptor,53%
same,koff,[2],1.3 min⁻¹
same,inhibition at 10 µM,[3],64%
same,inhibition at 10 µM,D3,59%
same,inhibition at 10 µM,D2 [4],92%
NCCc1ccc(O)c(O)c1 [dopamine],EC50,D2 [5],"EC50 and IC50 values for dopamine and ML321, respectively, were determined"
O=C(CCCN1CCC2(CC1)C(=O)NCN2c1ccccc1)c1ccc(F)cc1 [spiperone],Ki,D2 [6],performed using both ML321 and unlabeled spiperone (as a control) with the wild-type
PPHT-red,Kd,[7],11.5 ± 0.16 nM
